# Test system: VDCC
# Test: VDCC inhibition: calcium entry (Fluo-4 fluorescence) in SH-SY5Y cells after depolarization with 60 mM KCl
# Format: cell-based, human
# Conditions: 10 min exposure, 60 mM KCl depolarization
# Procedure: This assay is aimed to determine the VDCC blocker activity of compounds; it is performed using SH-SY5Y neuroblastoma cells. SH-SY5Y cells were plated at 5x10^5 cells per well into Black / Clear Bottom 96-well culture plate, 48 hours before treatment. Cells were loaded with Fluo-4, 5 µM and pluronic acid, 0.1%, for 30 min at 37°C, 5%CO2, following a incubation of 15 min at RT in Krebs-HEPES solution. Immediately cells are exposed to the samples at different concentrations for 10 min. The compounds were tested at […], depending on potency. After the treatment, calcium entry is measured as fluorescence in a Fluostar Optima plate reader (BMG) in response to depolarization with 60 mM KCl. The excitation wavelength was 485 nm, and that of emission 520 nm.
Structure (SMILES),% of calcium entry inhibition (compound at 10^-5 (M)),% of calcium entry inhibition (compound at 10^-6 (M)),% of calcium entry inhibition (compound at 10^-7 (M))
COCOc1cc(OC)ccc1C(=O)NCCCCCCNC(=O)c1ccc(OC)cc1OCOC [Compound 3],37.5 ± 7%,"6,6 ± 2%",
COc1cc(O)c(C(=O)NCCCCCNC(=O)c2cc(Br)c(OC)cc2O)cc1Br [Compound 5],21.8 ± 5%,,
COCOc1cc(OC)ccc1C(=O)NCCCOc1c(Br)cc(CCNC(=O)c2ccc(OC)cc2OCOC)cc1Br [Compound 4],87.3 ± 5%,27.3 ± 5%,6 ± 0%

# From patent publication EP1798220A1, “Dibenzene derivatives as calcium channel blockers” (Neuropharma S.A., priority 2005, dated 2007)
